In brackets after ≈: the same amount, converted by molar mass. Like-named read-outs stand apart in the source and are kept apart here.
Assays:
Type in all cases: cell-based
[1] = tested on: Trichophyton mentagraphytes MTU-19031; assay: Minimum inhibitory concentration, anti-Trichophyton mentagraphytes activity test, strain MTU-19031; conditions: 27° C., a week; for MIC: Trichophyton, MTU19031, Sabouraud's dextrose agar
Description: (§1) The activity was tested by the 10 time-step dilution test, using the Sabouraud's dextrose agar culture medium (2% dextrose, 1% pepton and 1.5% agar; pH 6.5±). A platinum loopful (about 10 μl) spore suspension (prepared from a reserved strain of Trichlophyton mentagraphytes and containing 1×10^6 cells/ml) was applied in the form of drawn lines on a plate of a culture medium containing the active ingredients. The culture medium plate was kept at 27° C. for a week and then visually observed to see if any colonies had formed. The minimum inhibitory concentration was defined as the minimum concentration with which formation of distinct colonies on the culture medium plate was not observed.

[2] = tested on: Trichophyton mentagraphytes MTU-19024; assay: Minimum inhibitory concentration, anti-Trichophyton mentagraphytes activity test, strain MTU-19024; conditions: 27° C., a week; for MIC: Trichophyton, MTU19024, Sabouraud's dextrose agar
Description: as §1

[3] = tested on: Trichophyton violaceum MTU-19021; assay: Growth inhibition test; conditions: read-out: Minimum inhibitory concentration
[4] = tested on: Microsporum gypseum MTU-20005; assay: Growth inhibition test; conditions: Nannizzia gypsea, read-out: Minimum inhibitory concentration
[5] = tested on: Epidermophyton floccosum MTU-21007; assay: Growth inhibition test; conditions: MTU21007, 336 h, after 14 days cultivation at 27° C., read-out: Minimum inhibitory concentration
[6] = tested on: Microsporum canis MTU-20010; assay: Growth inhibition test; conditions: read-out: Minimum inhibitory concentration
[7] = MTU19021, 168 h, after 7 days cultivation at 27° C.
[8] = MTU19021, 336 h, after 14 days cultivation at 27° C.
[9] = MTU20005, 168 h, after 7 days cultivation at 27° C.
[10] = MTU20005, 336 h, after 14 days cultivation at 27° C.
[11] = MTU20010, 168 h, after 7 days cultivation at 27° C.
[12] = MTU20010, 336 h, after 14 days cultivation at 27° C.

| Compound | MIC [1] [µg/mL] | MIC [2] [µg/mL] | further results |
| --- | --- | --- | --- |
| Cc1cccc(N(C)C(=S)Oc2ccc3ccccc3c2)n1 [Compound No. 2, O-2-Naphthyl N-methyl-N-(6-methyl-2-pyridyl)thiocarbamate] | 0.5 (≈ 1.62 µM) | 0.5 (≈ 1.62 µM) |  |
| Cc1cccc(N(C)C(=S)Oc2ccc3c(c2)CCCC3)n1 [compound 8, O--5,6,7,8-Tetrahydro-2-naphthyl N--methyl-N--(6-methyl-2-pyridyl)thiocarbamate] | 0.5 (≈ 1.6 µM) | 0.5 (≈ 1.6 µM) |  |
| COc1cccc(N(C)C(=S)Oc2ccc3c(c2)C2CCC3C2)n1 (stereo not shown) [compound 12, O--1,4-Methano-1,2,3,4-tetrahydro-6-naphthyl N--(6-methoxy-2-pyridyl)-N--methylthiocarbamate] | 0.5 (≈ 1.47 µM) | 0.5 (≈ 1.47 µM) |  |
| COc1cccc(N(C)C(=O)Oc2ccc3c(c2)C2CCC3C2)n1 (stereo not shown) [compound 13, 1,4-Methano-1,2,3,4-tetrahydro-6-naphthyl N--(6-methoxy-2-pyridyl)-N--methylcarbamate] | 0.5 (≈ 1.54 µM) | 0.5 (≈ 1.54 µM) |  |
| Cc1cc(C)nc(N(C)C(=S)Oc2ccc3ccccc3c2)c1 [compound 14, O--2-Naphthyl N--methyl-N--(4,6,-dimethyl-2-pyridyl)thiocarbamate] | 0.5 (≈ 1.55 µM) | 0.5 (≈ 1.55 µM) |  |
| Cc1cc(C)nc(N(C)C(=S)Oc2ccc3c(c2)CCC3)c1 [compound 15, O--5-Indanyl N--methyl-N--(4,6-dimethyl-2-pyridyl)thiocarbamate] | 0.5 (≈ 1.6 µM) | 0.5 (≈ 1.6 µM) |  |
| COc1cccc(N(C)C(=S)Oc2ccc(C(C)(C)C)cc2)n1 [compound 16, O--4-t-Butylphenyl N--(6-methoxy-2-pyridyl)-N--methylthiocarbamate] | 0.5 (≈ 1.51 µM) | 0.5 (≈ 1.51 µM) |  |
| CCC(C)(C)c1ccc(OC(=S)N(C)c2cccc(OC)n2)cc1 [compound 19, O--4-t-Pentylphenyl N--(6-methoxy-2-pyridyl)-N--methylthiocarbamate] | 0.5 (≈ 1.45 µM) | 0.5 (≈ 1.45 µM) |  |
| COc1cccc(N(C)C(=S)Oc2ccc3c(c2)C2CCC3CC2)n1 [compound 21, O--1,4-Ethano-1,2,3,4-tetrahydro-6-naphthyl N--(6-methoxy-2-pyridyl)-N--methylthiocarbamate] | 0.5 (≈ 1.41 µM) | 0.5 (≈ 1.41 µM) |  |
| COc1cccc(N(C)C(=S)Oc2ccc(C)c(C)c2)n1 [compound 22, O--3,4-Dimethylphenyl N--(6-methoxy-2-pyridyl)-N--methylthiocarbamate] | 0.5 (≈ 1.65 µM) | 0.5 (≈ 1.65 µM) |  |
| Cc1ccc(N(C)C(=S)Oc2ccc3ccccc3c2)nc1C [compound 25, O--2-Naphthyl N--methyl-N--(5,6-dimethyl-2-pyridyl)thiocarbamate] | 0.5 (≈ 1.55 µM) | 0.5 (≈ 1.55 µM) |  |
| Cc1ccc(N(C)C(=S)Oc2ccc3c(c2)CCC3)nc1C [compound 26, O--5-Indanyl N--methyl-N--(5,6-dimethyl-2-pyridyl)thiocarbamate] | 0.5 (≈ 1.6 µM) | 0.5 (≈ 1.6 µM) |  |
| Cc1ccc(N(C)C(=S)Oc2ccc3c(c2)CCCC3)nc1C [compound 27, O--5,6,7,8-Tetrahydro-2-naphthyl N--methyl-N--(5,6-dimethyl-2-pyridyl)-thiocarbamate] | 0.5 (≈ 1.53 µM) | 0.5 (≈ 1.53 µM) |  |
| COc1cccc(N(C)C(=S)Oc2cccc(C(C)(C)C)c2)n1 [compound 28, O--3-t-Butylphenyl N--(6-methoxy-2-pyridyl)-N--methylthiocarbamate] | 0.5 (≈ 1.51 µM) | 0.5 (≈ 1.51 µM) | MIC [3, 7]: 0.5 µg/mL (≈ 1.51 µM); MIC [3, 8]: 0.5 µg/mL (≈ 1.51 µM); MIC [4, 9]: 0.5 µg/mL (≈ 1.51 µM); MIC [4, 10]: 0.5 µg/mL (≈ 1.51 µM); MIC [5]: 0.5 µg/mL (≈ 1.51 µM); MIC [6, 11]: 0.5 µg/mL (≈ 1.51 µM); MIC [6, 12]: 0.5 µg/mL (≈ 1.51 µM) |
| COc1cccc(N(C)C(=S)Oc2ccc(C(C)C)cc2)n1 [compound 30, O--4-Isopropylphenyl N--(6-methoxy-2-pyridyl)-N--methylthiocarbamate] | 0.5 (≈ 1.58 µM) | 0.5 (≈ 1.58 µM) |  |
| CCc1ccc(OC(=S)N(C)c2cccc(OC)n2)cc1 [compound 33, O--4-Ethylphenyl N--(6-methoxy-2-pyridyl)-N--methylthiocarbamate] | 0.05 (≈ 0.165 µM) | 0.5 (≈ 1.65 µM) |  |
| COc1cccc(N(C)C(=S)Oc2ccc(Br)cc2)n1 [compound 34, O--4-Bromophenyl N--(6-methoxy-2-pyridyl)-N--methylthiocarbamate] | 0.05 (≈ 0.142 µM) | 0.5 (≈ 1.42 µM) |  |

| Compound | MIC [1] [µg/mL] | MIC [2] [µg/mL] | further results |
| --- | --- | --- | --- |
| CN(C)c1cccc(N(C)C(=S)Oc2ccc3ccccc3c2)n1 [compound 35, O--2-Naphthyl N--methyl-N--(6-dimethylamino-2-pyridyl)-thiocarbamate] | 0.5 (≈ 1.48 µM) | 0.5 (≈ 1.48 µM) |  |
| CN(C)c1cccc(N(C)C(=S)Oc2ccc(C(C)(C)C)cc2)n1 [compound 36, O--4-t-Butylphenyl N--methyl-N--(6-dimethylamino-:2-pyridyl)-thiocarbamate] | 0.5 (≈ 1.46 µM) | 0.5 (≈ 1.46 µM) |  |
| COc1cccc(N(C)C(=S)Oc2ccc(Cl)c(C)c2)n1 [compound 38, O--4-Chloro-3-methylphenyl N--(6-methoxy-2-pyridyl)-N--methylthiocarbamate] | 0.05 (≈ 0.155 µM) | 0.5 (≈ 1.55 µM) |  |
| CCc1ccc(OC(=S)N(C)c2cccc(OC)n2)cc1C [compound 39, O--4-Ethyl-3-methylphenyl N--(6-methoxy-2-pyridyl)-N--methylthiocarbamate] | 0.5 (≈ 1.58 µM) | 0.5 (≈ 1.58 µM) |  |
| COc1cccc(N(C)C(=S)Oc2ccc(C(C)C)c(C)c2)n1 [compound 41, O--4-Isopropyl-3-methylphenyl N--(6-methoxy-2-pyridyl)-N--methylthiocarbamate] | 0.5 (≈ 1.51 µM) | 0.5 (≈ 1.51 µM) |  |
| COc1cccc(N(C)C(=S)Oc2ccc(C(F)(F)F)cc2)n1 [compound 43, O-- 4-Trifluoromethylphenyl N--(6-methoxy-2-pyridyl)-N--methylthiocarbamate] | 0.05 (≈ 0.146 µM) | 0.5 (≈ 1.46 µM) |  |
| COc1cccc(N(C)C(=S)Oc2ccc(Br)c(C)c2)n1 [compound 46, O--4-Bromo-3-methylphenyl N--(6-methoxy-2-pyridyl)-N--methylthiocarbamate] | 0.5 (≈ 1.36 µM) | 0.5 (≈ 1.36 µM) |  |
| COc1cccc(N(C)C(=S)Oc2cccc(C(C)C)c2)n1 [compound 48, O--3-Isopropylphenyl N--(6-methoxy-2-pyridyl)-N--methylthiocarbamate] | 0.5 (≈ 1.58 µM) | 0.5 (≈ 1.58 µM) | MIC [3, 7]: 0.5 µg/mL (≈ 1.58 µM); MIC [3, 8]: 0.5 µg/mL (≈ 1.58 µM); MIC [4, 9]: 0.5 µg/mL (≈ 1.58 µM); MIC [4, 10]: 0.5 µg/mL (≈ 1.58 µM); MIC [5]: 0.5 µg/mL (≈ 1.58 µM); MIC [6, 11]: 0.5 µg/mL (≈ 1.58 µM); MIC [6, 12]: 0.5 µg/mL (≈ 1.58 µM) |
| COc1cccc(N(C)C(=S)Oc2ccc(Cl)c(Cl)c2)n1 [compound 50, O--3,4-Dichlorophenyl N--(6-methoxy-2-pyridyl)-N--methylthiocarbamate] | 0.5 (≈ 1.46 µM) | 0.5 (≈ 1.46 µM) |  |
| COc1cccc(N(C)C(=S)Oc2ccc(C)cc2)n1 [compound 53, O--4-Methylphenyl N--(6-methoxy-2-pyridyl)-N--methylthiocarbamate] | 0.5 (≈ 1.73 µM) | 0.5 (≈ 1.73 µM) |  |
| C=C(C)c1ccc(OC(=S)N(C)c2cccc(OC)n2)cc1 [compound 56, O--4-Isopropenylphenyl N--(6-methoxy-2-pyridyl)-N--methylthiocarbamate] | 0.5 (≈ 1.59 µM) | 0.5 (≈ 1.59 µM) |  |
| CNc1cccc(N(C)C(=S)Oc2ccc(C(C)(C)C)cc2)n1 [compound 58, O--4-t-Butylphenyl N--methyl-N--(6-methylamino-2-pyridyl)thiocarbamate] | 0.5 (≈ 1.52 µM) | 0.5 (≈ 1.52 µM) |  |
| COc1cccc(N(C)C(=S)Oc2ccc(SC)cc2)n1 [compound 62, O--4-Methylthiophenyl N--(6-methoxy-2-pyridyl)-N--methylthiocarbamate] | 0.05 (≈ 0.156 µM) | 0.5 (≈ 1.56 µM) |  |
| CCCc1ccc(OC(=S)N(C)c2cccc(OC)n2)cc1 [compound 65, O--4-Propylphenyl N--(6-methoxy-2-pyridyl)-N--methylthiocarbamate] | 0.5 (≈ 1.58 µM) | 0.5 (≈ 1.58 µM) |  |
| COc1cccc(N(C)C(=S)Oc2ccc(SC)c(C)c2)n1 [compound 67, O--3-Methyl-4-methylthiophenyl N--(6-methoxy-2-pyridyl)-N--methylthiocarbamate] | 0.5 (≈ 1.49 µM) | 0.5 (≈ 1.49 µM) |  |
| CN(C)c1cccc(N(C)C(=S)Oc2ccc(C(F)(F)F)cc2)n1 [compound 68, O--4-Trifluoromethylphenyl N--(6-dimethylamino-2-pyridyl)-N--methylthiocarbamate] | 0.5 (≈ 1.41 µM) | 0.5 (≈ 1.41 µM) |  |
| O--Methyl-4-nitrophenyl N--(6-methoxy-2-pyridyl)-N--methylthiocarbamate [compound 66] |  |  | Minimum inhibitory concentration ([1]; Sabouraud's dextrose agar): 0.5 µg/mL; Minimum inhibitory concentration ([2]; Sabouraud's dextrose agar): 0.5 µg/mL |

— patent US4621090A, “Antifungal compositions” (Toyo Soda Manufacturing Co., Ltd., priority 1983, dated 1986)
